Assay results: patent publication US20160031925A1, “AZITHROMYCIN ANTIMICROBIAL DERIVATIVES WITH NON-ANTIBIOTIC PHARMACEUTICAL EFFECT” (priority 2013, published 2016)
Read-outs that look alike come from different tables or passages of the source.

Columns and labels:
[1] = tested on: Klebsiella pneumonia ATCC 35657; test: Antimicrobial disk susceptibility test (CLSI M2-A9), K. pneumonia; format: cell-based
Experimental: (§1) Test for the antimicrobial activity of the novel compounds may be performed according to the standards of Clinical and Laboratory Standards Institute, Performance Standards for Antimicrobial Disk Susceptibility Tests; approved Standard; M2-A), vol. 26 NO. 1 9th ed.
as §1, with “A test for” for “Test for”, “compounds were” for “compounds may be”, “ed. The samples were dissolved in 10 ml of sterile Milli-Q water by magnetic stirring overnight at 20° C.” for “ed.”
(§2) Two doses of the samples were tested in duplicate, a) and b). The size of the inhibition zones were measured in mm after incubation.

[2] = tested on: Escherichia coli ATCC 8739; test: Antimicrobial disk susceptibility test (CLSI M2-A9), E. coli; format: cell-based
Experimental: as §1
as §1, with “A test for” for “Test for”, “compounds were” for “compounds may be”, “ed. The samples were dissolved in 10 ml of sterile Milli-Q water by magnetic stirring overnight at 20° C.” for “ed.”
as §2

[3] = tested on: Staphylococcus aureus ATTC 6538; test: Antimicrobial disk susceptibility test (CLSI M2-A9), S. aureus; format: cell-based
Experimental: as §1
as §1, with “A test for” for “Test for”, “compounds were” for “compounds may be”, “ed. The samples were dissolved in 10 ml of sterile Milli-Q water by magnetic stirring overnight at 20° C.” for “ed.”
as §2

[4] = tested on: Pseudomonas aeruginosa ATCC 9027; test: Antimicrobial disk susceptibility test (CLSI M2-A9), P. aeruginosa; format: cell-based
Experimental: as §1
as §1, with “A test for” for “Test for”, “compounds were” for “compounds may be”, “ed. The samples were dissolved in 10 ml of sterile Milli-Q water by magnetic stirring overnight at 20° C.” for “ed.”
as §2

human airway epithelia = conditions: reference 6; cited from earlier work
[5] = Klebsiella pneumoniae, ATCC35657; 5 μg/disk, duplicate a); read-out: size of the inhibition zone, K. pneumonia a)
[6] = Klebsiella pneumoniae, ATCC35657; 5 μg/disk, duplicate b); read-out: size of the inhibition zone, K. pneumonia b)
[7] = Klebsiella pneumoniae, ATCC35657; 10 μg/disk, duplicate a); read-out: size of the inhibition zone, K. pneumonia a)
[8] = Klebsiella pneumoniae, ATCC35657; 10 μg/disk, duplicate b); read-out: size of the inhibition zone, K. pneumonia b)
[9] = Escherichia coli, ATCC8739; 5 μg/disk, duplicate a); read-out: size of the inhibition zone, E. coli a)
[10] = Escherichia coli, ATCC8739; 5 μg/disk, duplicate b); read-out: size of the inhibition zone, E. coli b)
[11] = Escherichia coli, ATCC8739; 10 μg/disk, duplicate a); read-out: size of the inhibition zone, E. coli a)
[12] = Escherichia coli, ATCC8739; 10 μg/disk, duplicate b); read-out: size of the inhibition zone, E. coli b)
[13] = Staphylococcus aureus, ATTC6538; 5 μg/disk, duplicate a); read-out: size of the inhibition zone, S. aureus a)
[14] = Staphylococcus aureus, ATTC6538; 5 μg/disk, duplicate b); read-out: size of the inhibition zone, S. aureus b)
[15] = Staphylococcus aureus, ATTC6538; 10 μg/disk, duplicate a); read-out: size of the inhibition zone, S. aureus a)
[16] = Staphylococcus aureus, ATTC6538; 10 μg/disk, duplicate b); read-out: size of the inhibition zone, S. aureus b)
[17] = Pseudomonas aeruginosa, ATCC9027; 5 μg/disk, duplicate a); read-out: size of the inhibition zone, P. aeruginosa a)
[18] = Pseudomonas aeruginosa, ATCC9027; 5 μg/disk, duplicate b); read-out: size of the inhibition zone, P. aeruginosa b)
[19] = Pseudomonas aeruginosa, ATCC9027; 10 μg/disk, duplicate a); read-out: size of the inhibition zone, P. aeruginosa a)
[20] = Pseudomonas aeruginosa, ATCC9027; 10 μg/disk, duplicate b); read-out: size of the inhibition zone, P. aeruginosa b)
[21] = 10 μg/disk, one value per organism (reference)

Compound	zone of inhibition at 5 µg/disc [1, 5] [mm]	zone of inhibition at 5 µg/disc [1, 6] [mm]	zone of inhibition at 10 µg/disc [1, 7] [mm]	zone of inhibition at 10 µg/disc [1, 8] [mm]	zone of inhibition at 5 µg/disc [2, 9] [mm]	zone of inhibition at 5 µg/disc [2, 10] [mm]	zone of inhibition at 10 µg/disc [2, 11] [mm]	zone of inhibition at 10 µg/disc [2, 12] [mm]	zone of inhibition at 5 µg/disc [3, 13] [mm]	zone of inhibition at 5 µg/disc [3, 14] [mm]	zone of inhibition at 10 µg/disc [3, 15] [mm]	zone of inhibition at 10 µg/disc [3, 16] [mm]	zone of inhibition at 5 µg/disc [4, 17] [mm]	zone of inhibition at 5 µg/disc [4, 18] [mm]	zone of inhibition at 10 µg/disc [4, 19] [mm]	zone of inhibition at 10 µg/disc [4, 20] [mm]	size of the inhibition zone, K. pneumonia a) ([1]; 5 μg/disk, duplicate a)) [mm]	size of the inhibition zone, K. pneumonia b) ([1]; 5 μg/disk, duplicate b)) [mm]	size of the inhibition zone, K. pneumonia a) ([1]; 10 μg/disk, duplicate a)) [mm]	size of the inhibition zone, K. pneumonia b) ([1]; 10 μg/disk, duplicate b)) [mm]	also measured
CC[C@H]1OC(=O)[C@H](C)C(O[C@H]2C[C@@](C)(OC)[C@@H](O)[C@H](C)O2)[C@H](C)[C@@H](OC2O[C@H](C)C[C@H](N(C)C)[C@H]2C)[C@](C)(O)C[C@@H](C)CN(C)[C@H](C)[C@@H](O)[C@]1(C)O (stereo partly drawn) [PP001]	< 1	< 1	< 1	< 1	< 1	< 1	< 1	< 1	< 1	< 1	< 1	< 1	< 1	< 1	< 1	< 1					
CC[C@H]1OC(=O)[C@H](C)C(O[C@H]2C[C@@](C)(OC)[C@@H](C)[C@H](C)O2)[C@H](C)[C@@H](OC2O[C@H](C)C[C@H](N(C)C)[C@H]2O)[C@](C)(O)C[C@@H](C)CN(C)[C@H](C)[C@@H](O)[C@]1(C)O (stereo partly drawn) [PP002]	< 1	< 1	< 1	< 1	< 1	< 1	< 1	< 1	< 1	< 1	< 1	< 1	< 1	< 1	< 1	< 1					
CCC1OC(=O)C(C)C(OC2CC(C)(OC)C(C)C(C)O2)C(C)C(OC2OC(C)CC(N(C)C)C2C)C(C)(O)CC(C)CN(C)C(C)C(O)C1(C)O (stereo not drawn) [PP003]																	<1	<1	<1	<1	size of the inhibition zone, E. coli a) ([2]; 5 μg/disk, duplicate a)): <1 mm; size of the inhibition zone, E. coli b) ([2]; 5 μg/disk, duplicate b)): <1 mm; size of the inhibition zone, E. coli a) ([2]; 10 μg/disk, duplicate a)): <1 mm; size of the inhibition zone, E. coli b) ([2]; 10 μg/disk, duplicate b)): <1 mm; size of the inhibition zone, S. aureus a) ([3]; 5 μg/disk, duplicate a)): <1 mm; size of the inhibition zone, S. aureus b) ([3]; 5 μg/disk, duplicate b)): <1 mm; size of the inhibition zone, S. aureus a) ([3]; 10 μg/disk, duplicate a)): <1 mm; size of the inhibition zone, S. aureus b) ([3]; 10 μg/disk, duplicate b)): <1 mm; size of the inhibition zone, P. aeruginosa a) ([4]; 5 μg/disk, duplicate a)): <1 mm; size of the inhibition zone, P. aeruginosa b) ([4]; 5 μg/disk, duplicate b)): <1 mm; size of the inhibition zone, P. aeruginosa a) ([4]; 10 μg/disk, duplicate a)): <1 mm; size of the inhibition zone, P. aeruginosa b) ([4]; 10 μg/disk, duplicate b)): <1 mm
CC[C@H]1OC(=O)[C@H](C)C(O[C@H]2C[C@@](C)(OC)C[C@H](C)O2)[C@H](C)[C@@H](OC2O[C@H](C)C[C@H](N(C)C)[C@H]2O)[C@](C)(O)C[C@@H](C)CN(C)[C@H](C)[C@@H](O)[C@]1(C)O (stereo partly drawn) [PP004]	< 1	< 1	< 1	< 1	< 1	< 1	< 1	< 1	< 1	< 1	< 1	< 1	< 1	< 1	< 1	< 1					
CC[C@H]1OC(=O)[C@H](C)C(O[C@H]2C[C@@](C)(OC)[C@@H](O)[C@H](C)O2)[C@H](C)[C@@H](OC2C[C@@H](N(C)C)C[C@@H](C)O2)[C@](C)(O)C[C@@H](C)CN(C)[C@H](C)[C@@H](O)[C@]1(C)O (stereo partly drawn) [PP005]	< 1	< 1	< 1	< 1	< 1	< 1	< 1	< 1	< 1	< 1	< 1	< 1	< 1	< 1	< 1	< 1					
CCC1OC(=O)C(C)C(OC2CC(C)(OC)CC(C)O2)C(C)C(OC2CC(N(C)C)CC(C)O2)C(C)(O)CC(C)CN(C)C(C)C(O)C1(C)O (stereo not drawn) [PP006]																	<1	<1	<1	<1	size of the inhibition zone, E. coli a) ([2]; 5 μg/disk, duplicate a)): <1 mm; size of the inhibition zone, E. coli b) ([2]; 5 μg/disk, duplicate b)): <1 mm; size of the inhibition zone, E. coli a) ([2]; 10 μg/disk, duplicate a)): <1 mm; size of the inhibition zone, E. coli b) ([2]; 10 μg/disk, duplicate b)): <1 mm; size of the inhibition zone, S. aureus a) ([3]; 5 μg/disk, duplicate a)): <1 mm; size of the inhibition zone, S. aureus b) ([3]; 5 μg/disk, duplicate b)): <1 mm; size of the inhibition zone, S. aureus a) ([3]; 10 μg/disk, duplicate a)): <1 mm; size of the inhibition zone, S. aureus b) ([3]; 10 μg/disk, duplicate b)): <1 mm; size of the inhibition zone, P. aeruginosa a) ([4]; 5 μg/disk, duplicate a)): <1 mm; size of the inhibition zone, P. aeruginosa b) ([4]; 5 μg/disk, duplicate b)): <1 mm; size of the inhibition zone, P. aeruginosa a) ([4]; 10 μg/disk, duplicate a)): <1 mm; size of the inhibition zone, P. aeruginosa b) ([4]; 10 μg/disk, duplicate b)): <1 mm
CCC1OC(=O)C(C)C(OC2CC(C)(OC)CC(C)O2)C(C)C(OC2OC(C)CC(N(C)C)C2C)C(C)(O)CC(C)CN(C)C(C)C(O)C1(C)O (stereo not drawn) [PP007]																	<1	<1	<1	<1	size of the inhibition zone, E. coli a) ([2]; 5 μg/disk, duplicate a)): <1 mm; size of the inhibition zone, E. coli b) ([2]; 5 μg/disk, duplicate b)): <1 mm; size of the inhibition zone, E. coli a) ([2]; 10 μg/disk, duplicate a)): <1 mm; size of the inhibition zone, E. coli b) ([2]; 10 μg/disk, duplicate b)): <1 mm; size of the inhibition zone, S. aureus a) ([3]; 5 μg/disk, duplicate a)): <1 mm; size of the inhibition zone, S. aureus b) ([3]; 5 μg/disk, duplicate b)): <1 mm; size of the inhibition zone, S. aureus a) ([3]; 10 μg/disk, duplicate a)): <1 mm; size of the inhibition zone, S. aureus b) ([3]; 10 μg/disk, duplicate b)): <1 mm; size of the inhibition zone, P. aeruginosa a) ([4]; 5 μg/disk, duplicate a)): <1 mm; size of the inhibition zone, P. aeruginosa b) ([4]; 5 μg/disk, duplicate b)): <1 mm; size of the inhibition zone, P. aeruginosa a) ([4]; 10 μg/disk, duplicate a)): <1 mm; size of the inhibition zone, P. aeruginosa b) ([4]; 10 μg/disk, duplicate b)): <1 mm
CCC1OC(=O)C(C)C(OC2CC(C)(OC)C(C)C(C)O2)C(C)C(OC2CC(N(C)C)CC(C)O2)C(C)(O)CC(C)CN(C)C(C)C(O)C1(C)O (stereo not drawn) [PP008]																	<1	<1	<1	<1	size of the inhibition zone, E. coli a) ([2]; 5 μg/disk, duplicate a)): <1 mm; size of the inhibition zone, E. coli b) ([2]; 5 μg/disk, duplicate b)): <1 mm; size of the inhibition zone, E. coli a) ([2]; 10 μg/disk, duplicate a)): <1 mm; size of the inhibition zone, E. coli b) ([2]; 10 μg/disk, duplicate b)): <1 mm; size of the inhibition zone, S. aureus a) ([3]; 5 μg/disk, duplicate a)): <1 mm; size of the inhibition zone, S. aureus b) ([3]; 5 μg/disk, duplicate b)): <1 mm; size of the inhibition zone, S. aureus a) ([3]; 10 μg/disk, duplicate a)): <1 mm; size of the inhibition zone, S. aureus b) ([3]; 10 μg/disk, duplicate b)): <1 mm; size of the inhibition zone, P. aeruginosa a) ([4]; 5 μg/disk, duplicate a)): <1 mm; size of the inhibition zone, P. aeruginosa b) ([4]; 5 μg/disk, duplicate b)): <1 mm; size of the inhibition zone, P. aeruginosa a) ([4]; 10 μg/disk, duplicate a)): <1 mm; size of the inhibition zone, P. aeruginosa b) ([4]; 10 μg/disk, duplicate b)): <1 mm
CC[C@H]1OC(=O)[C@H](C)[C@@H](O[C@H]2C[C@@](C)(OC)[C@@H](O)[C@H](C)O2)[C@H](C)[C@@H](O[C@@H]2O[C@H](C)C[C@H](N(C)C)[C@H]2O)[C@](C)(O)C[C@@H](C)CN(C)[C@H](C)[C@@H](O)[C@]1(C)O [azithromycin]																					effect on transepithelial electrical resistance / processing of tight junction proteins (human airway epithelia): may increase the transepithelial electrical resistance
CC[C@H]1OC(=O)[C@H](C)[C@@H](O[C@H]2C[C@@](C)(OC)[C@@H](O)[C@H](C)O2)[C@H](C)[C@@H](O[C@@H]2O[C@H](C)C[C@H](N(C)C)[C@H]2O)[C@](C)(O)C[C@@H](C)C(=O)[C@H](C)[C@@H](O)[C@]1(C)O [erythromycin]																					effect on transepithelial electrical resistance / processing of tight junction proteins (human airway epithelia): not observed
Gentamicin [reference compound]																					size of the inhibition zone, K. pneumonia [1, 21]: 24.7 mm; size of the inhibition zone, E. coli [2, 21]: 27.9 mm; size of the inhibition zone, S. aureus [3, 21]: 30.4 mm; size of the inhibition zone, P. aeruginosa [4, 21]: 27.2 mm
penicillin																					effect on transepithelial electrical resistance / processing of tight junction proteins (human airway epithelia): not observed
